Numbers after ± are expanded uncertainties.
Tests used:
[1] = for surface tension liquid-gas: Ring tensiometer; for electrical conductivity: 101.33 kPa, Liquid, Alternating current cell with electrodes
[2] = refractive index (Na D-line) (dimensionless); details: 101.33 kPa, Liquid, Standard Abbe refractometry

CC(=O)[O-].[NH3+]CCCO [3-hydroxypropylammonium acetate]
surface tension liquid-gas ([1]; 293.15 K): 48 ± 1.4 mN/m
electrical conductivity ([1]; 293.15 K): 0.01 ± 0.01 S/m
surface tension liquid-gas ([1]; 298.15 K): 47.5 ± 1.3 mN/m
electrical conductivity ([1]; 298.15 K): 0.01 ± 0.01 S/m
surface tension liquid-gas ([1]; 303.15 K): 47 ± 1.3 mN/m
electrical conductivity ([1]; 303.15 K): 0.01 ± 0.01 S/m
surface tension liquid-gas ([1]; 308.15 K): 46.5 ± 1.3 mN/m
electrical conductivity ([1]; 308.15 K): 0.02 ± 0.01 S/m
surface tension liquid-gas ([1]; 313.15 K): 46 ± 1.3 mN/m
electrical conductivity ([1]; 313.15 K): 0.02 ± 0.01 S/m
surface tension liquid-gas ([1]; 318.15 K): 45.5 ± 1.3 mN/m
electrical conductivity ([1]; 318.15 K): 0.03 ± 0.01 S/m
surface tension liquid-gas ([1]; 323.15 K): 45 ± 1.3 mN/m
electrical conductivity ([1]; 323.15 K): 0.04 ± 0.01 S/m
surface tension liquid-gas ([1]; 328.15 K): 44.5 ± 1.3 mN/m
electrical conductivity ([1]; 328.15 K): 0.05 ± 0.01 S/m
surface tension liquid-gas ([1]; 333.15 K): 44 ± 1.2 mN/m
electrical conductivity ([1]; 333.15 K): 0.06 ± 0.01 S/m
refractive index ([2]; 293.15 K): 1.4663 ± 0.0012
refractive index ([2]; 298.15 K): 1.4652 ± 0.0012
refractive index ([2]; 303.15 K): 1.464 ± 0.0012
refractive index ([2]; 308.15 K): 1.4628 ± 0.0012
refractive index ([2]; 313.15 K): 1.4616 ± 0.0012
refractive index ([2]; 318.15 K): 1.4605 ± 0.0012
refractive index ([2]; 323.15 K): 1.4593 ± 0.0012
refractive index ([2]; 328.15 K): 1.4581 ± 0.0012
refractive index ([2]; 333.15 K): 1.457 ± 0.0012

O=C[O-].[NH3+]CCCO [3-hydroxypropylammonium formate]
surface tension liquid-gas ([1]; 293.15 K): 56.9 ± 1.6 mN/m
electrical conductivity ([1]; 293.15 K): 0.11 ± 0.01 S/m
surface tension liquid-gas ([1]; 298.15 K): 56.4 ± 1.6 mN/m
electrical conductivity ([1]; 298.15 K): 0.14 ± 0.01 S/m
surface tension liquid-gas ([1]; 303.15 K): 55.9 ± 1.6 mN/m
electrical conductivity ([1]; 303.15 K): 0.17 ± 0.01 S/m
surface tension liquid-gas ([1]; 308.15 K): 55.4 ± 1.6 mN/m
electrical conductivity ([1]; 308.15 K): 0.21 ± 0.01 S/m
surface tension liquid-gas ([1]; 313.15 K): 54.9 ± 1.5 mN/m
electrical conductivity ([1]; 313.15 K): 0.26 ± 0.01 S/m
surface tension liquid-gas ([1]; 318.15 K): 54.4 ± 1.5 mN/m
electrical conductivity ([1]; 318.15 K): 0.3 ± 0.01 S/m
surface tension liquid-gas ([1]; 323.15 K): 54 ± 1.5 mN/m
electrical conductivity ([1]; 323.15 K): 0.36 ± 0.01 S/m
surface tension liquid-gas ([1]; 328.15 K): 53.5 ± 1.5 mN/m
electrical conductivity ([1]; 328.15 K): 0.42 ± 0.01 S/m
surface tension liquid-gas ([1]; 333.15 K): 53 ± 1.5 mN/m
electrical conductivity ([1]; 333.15 K): 0.49 ± 0.01 S/m
refractive index ([2]; 293.15 K): 1.4678 ± 0.0012
refractive index ([2]; 298.15 K): 1.4667 ± 0.0012
refractive index ([2]; 303.15 K): 1.4655 ± 0.0012
refractive index ([2]; 308.15 K): 1.4644 ± 0.0012
refractive index ([2]; 313.15 K): 1.4632 ± 0.0012
refractive index ([2]; 318.15 K): 1.4621 ± 0.0012
refractive index ([2]; 323.15 K): 1.461 ± 0.0012
refractive index ([2]; 328.15 K): 1.4598 ± 0.0012
refractive index ([2]; 333.15 K): 1.4586 ± 0.0012

O=C([O-])C(F)(F)F.[NH3+]CCCO [3-hydroxypropylammonium trifluoroacetate]
surface tension liquid-gas ([1]; 293.15 K): 38.2 ± 1.1 mN/m
electrical conductivity ([1]; 293.15 K): 0.03 ± 0.01 S/m
surface tension liquid-gas ([1]; 298.15 K): 37.8 ± 1.1 mN/m
electrical conductivity ([1]; 298.15 K): 0.04 ± 0.01 S/m
surface tension liquid-gas ([1]; 303.15 K): 37.4 ± 1.1 mN/m
electrical conductivity ([1]; 303.15 K): 0.06 ± 0.01 S/m
surface tension liquid-gas ([1]; 308.15 K): 37 ± 1.1 mN/m
electrical conductivity ([1]; 308.15 K): 0.09 ± 0.01 S/m
surface tension liquid-gas ([1]; 313.15 K): 36.5 ± 1 mN/m
electrical conductivity ([1]; 313.15 K): 0.12 ± 0.01 S/m
surface tension liquid-gas ([1]; 318.15 K): 36.1 ± 1 mN/m
electrical conductivity ([1]; 318.15 K): 0.16 ± 0.01 S/m
surface tension liquid-gas ([1]; 323.15 K): 35.7 ± 1 mN/m
electrical conductivity ([1]; 323.15 K): 0.2 ± 0.01 S/m
surface tension liquid-gas ([1]; 328.15 K): 35.3 ± 1 mN/m
electrical conductivity ([1]; 328.15 K): 0.25 ± 0.01 S/m
surface tension liquid-gas ([1]; 333.15 K): 34.9 ± 1 mN/m
electrical conductivity ([1]; 333.15 K): 0.31 ± 0.01 S/m
refractive index ([2]; 293.15 K): 1.4113 ± 0.0012
refractive index ([2]; 298.15 K): 1.4101 ± 0.0012
refractive index ([2]; 303.15 K): 1.409 ± 0.0012
refractive index ([2]; 308.15 K): 1.4078 ± 0.0012
refractive index ([2]; 313.15 K): 1.4067 ± 0.0012
refractive index ([2]; 318.15 K): 1.4055 ± 0.0012
refractive index ([2]; 323.15 K): 1.4044 ± 0.0012
refractive index ([2]; 328.15 K): 1.4032 ± 0.0012
refractive index ([2]; 333.15 K): 1.402 ± 0.0012

CC(=O)[O-].CCC[NH3+] [propylammonium acetate]
surface tension liquid-gas ([1]; 293.15 K): 33.5 ± 1 mN/m
electrical conductivity ([1]; 293.15 K): 0.04 ± 0.01 S/m
surface tension liquid-gas ([1]; 298.15 K): 33.1 ± 1 mN/m
electrical conductivity ([1]; 298.15 K): 0.06 ± 0.01 S/m
surface tension liquid-gas ([1]; 303.15 K): 32.7 ± 0.9 mN/m
electrical conductivity ([1]; 303.15 K): 0.08 ± 0.01 S/m
surface tension liquid-gas ([1]; 308.15 K): 32.2 ± 0.9 mN/m
electrical conductivity ([1]; 308.15 K): 0.1 ± 0.01 S/m
surface tension liquid-gas ([1]; 313.15 K): 31.8 ± 0.9 mN/m
electrical conductivity ([1]; 313.15 K): 0.14 ± 0.01 S/m
surface tension liquid-gas ([1]; 318.15 K): 31.4 ± 0.9 mN/m
electrical conductivity ([1]; 318.15 K): 0.17 ± 0.01 S/m
surface tension liquid-gas ([1]; 323.15 K): 31 ± 0.9 mN/m
electrical conductivity ([1]; 323.15 K): 0.22 ± 0.01 S/m
surface tension liquid-gas ([1]; 328.15 K): 30.6 ± 0.9 mN/m
electrical conductivity ([1]; 328.15 K): 0.27 ± 0.01 S/m
surface tension liquid-gas ([1]; 333.15 K): 30.2 ± 0.9 mN/m
electrical conductivity ([1]; 333.15 K): 0.33 ± 0.01 S/m
refractive index ([2]; 293.15 K): 1.4383 ± 0.0012
refractive index ([2]; 298.15 K): 1.4369 ± 0.0012
refractive index ([2]; 303.15 K): 1.4356 ± 0.0012
refractive index ([2]; 308.15 K): 1.4341 ± 0.0012
refractive index ([2]; 313.15 K): 1.4328 ± 0.0012
refractive index ([2]; 318.15 K): 1.4313 ± 0.0012
refractive index ([2]; 323.15 K): 1.4301 ± 0.0012
refractive index ([2]; 328.15 K): 1.4287 ± 0.0012
refractive index ([2]; 333.15 K): 1.4273 ± 0.0012

CCC[NH3+].O=C[O-] [propylammonium formate]
surface tension liquid-gas ([1]; 293.15 K): 37.8 ± 1.1 mN/m
electrical conductivity ([1]; 293.15 K): 0.31 ± 0.01 S/m
surface tension liquid-gas ([1]; 298.15 K): 37.4 ± 1.1 mN/m
electrical conductivity ([1]; 298.15 K): 0.36 ± 0.01 S/m
surface tension liquid-gas ([1]; 303.15 K): 37 ± 1.1 mN/m
electrical conductivity ([1]; 303.15 K): 0.44 ± 0.01 S/m
surface tension liquid-gas ([1]; 308.15 K): 36.6 ± 1 mN/m
electrical conductivity ([1]; 308.15 K): 0.51 ± 0.01 S/m
surface tension liquid-gas ([1]; 313.15 K): 36.2 ± 1 mN/m
electrical conductivity ([1]; 313.15 K): 0.59 ± 0.01 S/m
surface tension liquid-gas ([1]; 318.15 K): 35.8 ± 1 mN/m
electrical conductivity ([1]; 318.15 K): 0.68 ± 0.01 S/m
surface tension liquid-gas ([1]; 323.15 K): 35.4 ± 1 mN/m
electrical conductivity ([1]; 323.15 K): 0.78 ± 0.01 S/m
surface tension liquid-gas ([1]; 328.15 K): 35 ± 1 mN/m
electrical conductivity ([1]; 328.15 K): 0.87 ± 0.01 S/m
surface tension liquid-gas ([1]; 333.15 K): 34.6 ± 1 mN/m
electrical conductivity ([1]; 333.15 K): 1 ± 0.01 S/m
refractive index ([2]; 293.15 K): 1.44 ± 0.0012
refractive index ([2]; 298.15 K): 1.4386 ± 0.0012
refractive index ([2]; 303.15 K): 1.4372 ± 0.0012
refractive index ([2]; 308.15 K): 1.4356 ± 0.0012
refractive index ([2]; 313.15 K): 1.4341 ± 0.0012
refractive index ([2]; 318.15 K): 1.4326 ± 0.0012
refractive index ([2]; 323.15 K): 1.431 ± 0.0012
refractive index ([2]; 328.15 K): 1.4295 ± 0.0012
refractive index ([2]; 333.15 K): 1.428 ± 0.0012

Source: the NIST ThermoML archive (doi:10.1021/acs.jced.5b00077)
